Source: ChEMBL document CHEMBL4387712, “Development of the binding molecules for the RNA higher-order structures based on the guanine-recognition by the G-clamp” (Bioorg Med Chem Lett, 2019)
One block for each molecule: values may come before it. Activity calls are given as the source filed them. The calls are words filed in the database; no cut-off is given here.

Legend:
[1] = Binding affinity to G0 RNA (unknown origin) at 10 nM by fluorescence spectra analysis
[2] = Binding affinity to stem-loop RNA (unknown origin) at 10 nM by fluorescence spectra analysis
[3] = Binding affinity to stem-duplex RNA (unknown origin) at 10 nM by fluorescence spectra analysis
[4] = Binding affinity to sh(-GUG-) RNA (unknown origin) assessed as increase in fluorescence at 10 nM by fluorescence spectra analysis relative to control
[5] = Binding affinity to sh(-CUA-) RNA (unknown origin) assessed as increase in fluorescence at 10 nM by fluorescence spectra analysis
[6] = Binding affinity to ssRNA-5 mer (unknown origin) assessed as increase in fluorescence at 10 nM by fluorescence spectra analysis
[7] = Binding affinity to sh(-CUG-) RNA (unknown origin) assessed as increase in fluorescence at 10 nM by fluorescence spectra analysis relative to control
[8] = Binding affinity to sh(-GUA-) RNA (unknown origin) assessed as increase in fluorescence at 10 nM by fluorescence spectra analysis relative to control
[9] = Binding affinity to sh(-GUG-) RNA (unknown origin) by fluorescence titration method
[10] = Binding affinity to sh(-CUG-) RNA (unknown origin) by fluorescence titration method
[11] = Binding affinity to sh(-GUA-) RNA (unknown origin) by fluorescence titration method
[12] = Binding affinity to sh(-GUG-) RNA (unknown origin) assessed as hypochromic effect at 10 uM by UV-vis spectral analysis
[13] = Binding affinity to sh(-CUA-) RNA (unknown origin) assessed as change in UV spectrum at 10 uM by UV-vis spectral analysis
[14] = Binding affinity to sh(-GUG-) RNA (unknown origin) at 10 uM by circular dichroism
[15] = Binding affinity to sh(-CUA-) RNA (unknown origin) at 10 uM by circular dichroism
[16] = Binding affinity to wild-type full length pre-miRNA-17 (unknown origin) assessed as increase in fluorescence intensity at 10 nM by fluorescence spectra analysis
[17] = Binding affinity to hairpin G2 RNA mutant (unknown origin) assessed as increase in fluorescence intensity at 10 nM by fluorescence spectra analysis
[18] = Binding affinity to mismatch G2 RNA mutant (unknown origin) assessed as increase in fluorescence intensity at 10 nM by fluorescence spectra analysis
[19] = Binding affinity to overhang G2 RNA mutant (unknown origin) assessed as increase in fluorescence intensity at 10 nM by fluorescence spectra analysis
[20] = Binding affinity to sh(-GUG-) RNA (unknown origin) assessed as bathochromic effect at 10 uM by UV-vis spectral analysis
[21] = Binding affinity to sh(-CUG-) RNA (unknown origin) at 10 nM by fluorescence spectra analysis
[22] = Binding affinity to sh(-CUA-) RNA (unknown origin) at 10 nM by fluorescence spectra analysis
[23] = Binding affinity to ssRNA-5 mer (unknown origin) at 10 nM by fluorescence spectra analysis
[24] = Binding affinity to sh(-GUA-) RNA (unknown origin) at 10 nM by fluorescence spectra analysis
[25] = Binding affinity to sh(-GUG-) RNA (unknown origin) at 10 nM by fluorescence spectra analysis

- Activity [1]: Active
- Activity [2]: Active
- Activity [3]: Active
- Activity [4]: Active
- fold change (FC) [4]: 7
- Activity [5]: inactive
- Activity [6]: inactive
- fold change (FC) [7]: 4.1
- fold change (FC) [8]: 2.6
- Kd [9]: 9 nM
- Kd [10]: 27 nM
- Kd [11]: 103 nM
- Activity [12]: Active
- Activity [13]: inactive
- Activity [14]: Active
- Activity [15]: inactive
- Activity [16]: Active
- Activity [17]: Active
- Activity [18]: Active
- Activity [19]: Active
- Activity [20]: Active
Compound: CN(CCCNC(=O)Cn1cc2c(nc1=O)Nc1c(OCCN)cccc1O2)CCCNC(=O)Cn1cc2c(nc1=O)Nc1c(OCCN)cccc1O2

- Activity [21]: Active
- Activity [22]: inactive
- Activity [23]: inactive
- Activity [24]: inactive
- Activity [25]: Active
- Kd [10]: 155 nM
- Kd [11]: 202 nM
Compound: CN(C)CCCNC(=O)Cn1cc2c(nc1=O)Nc1c(OCCN)cccc1O2
